Measured values from US20250255867A1 (Kadmon Corporation, LLC, priority 2022, published 2025).

Test system: patients with cGVHD
Assay: Example 1: pulmonary function (percent predicted FEV1, FVC, DLco, TLC, RV) change from baseline
Format: in vivo, human
Method: Change From Baseline in Percent Predicted Forced Expiratory Volume in 1 Second (FEV1) at Each Specified Time Points. FEV1 was the volume of air exhaled from the lungs in the first second of a forced expiration as measured by spirometer. Baseline value was defined as valid and last non-missing value obtained within 28 days prior to participant receiving first study medication. EOT visit was performed within 3 days after the participant's last dose of study drug. […] Analysis was performed on mITT population. Here, ‘number analyzed’=participants with available data for each specified category. Here, ‘0’ in the number analyzed field signifies that none of the participants were available for the analysis at the specified time points.
Change From Baseline in Percent Predicted Forced Vital Capacity (FVC) at Each Specified Time Points. FVC was the total amount of air (in liters) exhaled from the lungs during the lung function test measured by spirometer which assessed the change in lung function related to the disease status. Baseline value was defined as valid and last non-missing value obtained within 28 days prior to participant receiving first study medication. EOT visit was performed within 3 days after the participant's last dose of study drug. […] Analysis was performed on mITT population. Here, ‘number analyzed’=participants with available data for each specified category. Here, ‘0’ in the number analyzed field signifies that none of the participants were available for the analysis at the specified time points.
Change From Baseline in Percent Predicted Hemoglobin (HGB) Corrected Diffusing Capacity of Lung for Carbon Monoxide (DLco) at Each Specified Time Points. DLco is a measurement of the ability of the lungs to transfer gases from the air to the blood. Change from baseline in diffusing capacity of the lung for carbon monoxide (percent predicted hemoglobin level corrected) was reported for this measure. Baseline value was defined as valid and last non-missing value obtained within 28 days prior to participant receiving first study medication. EOT visit was performed within 3 days after the participant's last dose of study drug. […] Analysis was performed on mITT population. Here, ‘number analyzed’=participants with available data for each specified category. Here, ‘0’ in the number analyzed field signifies that none of the participants were available for the analysis at the specified time points.
Change From Baseline in Percent Predicted Total Lung Capacity (TLC) at Each Specified Time Points. TLC is the volume of air in the lungs upon the maximum effort of inspiration. Baseline value was defined as valid and last non-missing value obtained within 28 days prior to participant receiving first study medication. EOT visit was performed within 3 days after the participant's last dose of study drug. […] Analysis was performed on mITT population. Here, ‘number analyzed’=participants with available data for each specified category.

SMILES: CC(C)NC(=O)COc1cccc(-c2nc(Nc3ccc4[nH]ncc4c3)c3ccccc3n2)c1 [Belumosudil, 2-{3-[4-(1H-indazol-5-ylamino)-2-quinazolinyl]phenoxy}-N-(propan-2-yl) acetamide]
- Change From Baseline in Percent Predicted Residual Volume (RV), Mean (Standard Deviation) (Cohort 1: 200 mg QD, Cycle 3, Day 1, n=14): 0.2 (22.2) percent predicted RV
- Change From Baseline in Percent Predicted Residual Volume (RV), Mean (Standard Deviation) (Cohort 1: 200 mg QD, Cycle 5, Day 1, n=13): 5.2 (24.5) percent predicted RV
- Change From Baseline in Percent Predicted Residual Volume (RV), Mean (Standard Deviation) (Cohort 1: 200 mg QD, Cycle 7, Day 1, n=11): 4.9 (29.1) percent predicted RV
- Change From Baseline in Percent Predicted Residual Volume (RV), Mean (Standard Deviation) (Cohort 1: 200 mg QD, Cycle 9, Day 1, n=9): 6.4 (27.4) percent predicted RV
- Change From Baseline in Percent Predicted Residual Volume (RV), Mean (Standard Deviation) (Cohort 1: 200 mg QD, Cycle 11, Day 1, n=7): 22.1 (29.6) percent predicted RV
- Change From Baseline in Percent Predicted Residual Volume (RV), Mean (Standard Deviation) (Cohort 1: 200 mg QD, Cycle 12, Day 1, n=1): −28.0 (—) percent predicted RV
- Change From Baseline in Percent Predicted Residual Volume (RV), Mean (Standard Deviation) (Cohort 1: 200 mg QD, Cycle 13, Day 1, n=7): 20.3 (19.9) percent predicted RV
- Change From Baseline in Percent Predicted Residual Volume (RV), Mean (Standard Deviation) (Cohort 1: 200 mg QD, Cycle 14, Day 1, n=1): 78.0 (—) percent predicted RV
- Change From Baseline in Percent Predicted Residual Volume (RV), Mean (Standard Deviation) (Cohort 1: 200 mg QD, Cycle 15, Day 1, n=6): 20.3 (27.4) percent predicted RV
- Change From Baseline in Percent Predicted Residual Volume (RV), Mean (Standard Deviation) (Cohort 1: 200 mg QD, Cycle 16, Day 1, n=1): 0.0 (—) percent predicted RV
- Change From Baseline in Percent Predicted Residual Volume (RV), Mean (Standard Deviation) (Cohort 1: 200 mg QD, Cycle 17, Day 1, n=5): 13.6 (27.8) percent predicted RV
- Change From Baseline in Percent Predicted Residual Volume (RV), Mean (Standard Deviation) (Cohort 1: 200 mg QD, Cycle 19, Day 1, n=5): 5.4 (28.7) percent predicted RV
- Change From Baseline in Percent Predicted Residual Volume (RV), Mean (Standard Deviation) (Cohort 1: 200 mg QD, Cycle 21, Day 1, n=3): 8.3 (10.0) percent predicted RV
- Change From Baseline in Percent Predicted Residual Volume (RV), Mean (Standard Deviation) (Cohort 1: 200 mg QD, Cycle 23, Day 1, n=3): 0.3 (5.1) percent predicted RV
- Change From Baseline in Percent Predicted Residual Volume (RV), Mean (Standard Deviation) (Cohort 1: 200 mg QD, Cycle 24, Day 1, n=1): −4.0 (—) percent predicted RV
- Change From Baseline in Percent Predicted Residual Volume (RV), Mean (Standard Deviation) (Cohort 1: 200 mg QD, Cycle 25, Day 1, n=2): 1.0 (9.9) percent predicted RV
- Change From Baseline in Percent Predicted Residual Volume (RV), Mean (Standard Deviation) (Cohort 1: 200 mg QD, Cycle 26, Day 1, n=1): −3.0 (—) percent predicted RV
- Change From Baseline in Percent Predicted Residual Volume (RV), Mean (Standard Deviation) (Cohort 1: 200 mg QD, Cycle 27, Day 1, n=2): 19.5 (41.7) percent predicted RV
- Change From Baseline in Percent Predicted Residual Volume (RV), Mean (Standard Deviation) (Cohort 1: 200 mg QD, Cycle 29, Day 1, n=2): −13.0 (42.4) percent predicted RV
- Change From Baseline in Percent Predicted Residual Volume (RV), Mean (Standard Deviation) (Cohort 1: 200 mg QD, Cycle 37, Day 1, n=1): −54.0 (—) percent predicted RV
- Change From Baseline in Percent Predicted Residual Volume (RV), Mean (Standard Deviation) (Cohort 1: 200 mg QD, Cycle 38, Day 1, n=1): 8.0 (—) percent predicted RV
- Change From Baseline in Percent Predicted Residual Volume (RV), Mean (Standard Deviation) (Cohort 1: 200 mg QD, Cycle 39, Day 1, n=2): 43.0 (89.1) percent predicted RV
- Change From Baseline in Percent Predicted Residual Volume (RV), Mean (Standard Deviation) (Cohort 1: 200 mg QD, Cycle 40, Day 1, n=1): −1.0 (—) percent predicted RV
- Change From Baseline in Percent Predicted Residual Volume (RV), Mean (Standard Deviation) (Cohort 1: 200 mg QD, Cycle 41, Day 1, n=1): 80.0 (—) percent predicted RV
- Change From Baseline in Percent Predicted Residual Volume (RV), Mean (Standard Deviation) (Cohort 1: 200 mg QD, Cycle 43, Day 1, n=1): 58.0 (—) percent predicted RV
- Change From Baseline in Percent Predicted Residual Volume (RV), Mean (Standard Deviation) (Cohort 1: 200 mg QD, Cycle 47, Day 1, n=1): 42.0 (—) percent predicted RV
- Change From Baseline in Percent Predicted Residual Volume (RV), Mean (Standard Deviation) (Cohort 1: 200 mg QD, Cycle 48, Day 1, n=1): −50.0 (—) percent predicted RV
- Change From Baseline in Percent Predicted Residual Volume (RV), Mean (Standard Deviation) (Cohort 1: 200 mg QD, Cycle 49, Day 1, n=1): −14.0 (—) percent predicted RV
- Change From Baseline in Percent Predicted Residual Volume (RV), Mean (Standard Deviation) (Cohort 1: 200 mg QD, Cycle 51, Day 1, n=1): 22.0 (—) percent predicted RV
- Change From Baseline in Percent Predicted Residual Volume (RV), Mean (Standard Deviation) (Cohort 1: 200 mg QD, Cycle 52, Day 1, n=1): −4.0 (—) percent predicted RV
- Change From Baseline in Percent Predicted Residual Volume (RV), Mean (Standard Deviation) (Cohort 1: 200 mg QD, Cycle 53, Day 1, n=1): 22.0 (—) percent predicted RV
- Change From Baseline in Percent Predicted Residual Volume (RV), Mean (Standard Deviation) (Cohort 1: 200 mg QD, Cycle 54, Day 1, n=1): 4.0 (—) percent predicted RV
- Change From Baseline in Percent Predicted Residual Volume (RV), Mean (Standard Deviation) (Cohort 1: 200 mg QD, Cycle 55, Day 1, n=1): 53.0 (—) percent predicted RV
- Change From Baseline in Percent Predicted Residual Volume (RV), Mean (Standard Deviation) (Cohort 1: 200 mg QD, Cycle 56, Day 1, n=1): 17.0 (—) percent predicted RV
- Change From Baseline in Percent Predicted Residual Volume (RV), Mean (Standard Deviation) (Cohort 1: 200 mg QD, Cycle 57, Day 1, n=1): 18.0 (—) percent predicted RV
- Change From Baseline in Percent Predicted Residual Volume (RV), Mean (Standard Deviation) (Cohort 1: 200 mg QD, Cycle 58, Day 1, n=1): 4.0 (—) percent predicted RV
- Change From Baseline in Percent Predicted Residual Volume (RV), Mean (Standard Deviation) (Cohort 1: 200 mg QD, Cycle 60, Day 1, n=1): −20.0 (—) percent predicted RV
- Change From Baseline in Percent Predicted Residual Volume (RV), Mean (Standard Deviation) (Cohort 1: 200 mg QD, Cycle 61, Day 1, n=1): −18.0 (—) percent predicted RV
- Change From Baseline in Percent Predicted Residual Volume (RV), Mean (Standard Deviation) (Cohort 1: 200 mg QD, Cycle 62, Day 1, n=1): −8.0 (—) percent predicted RV
- Change From Baseline in Percent Predicted Residual Volume (RV), Mean (Standard Deviation) (Cohort 1: 200 mg QD, Cycle 63, Day 1, n=1): 6.0 (—) percent predicted RV
- Change From Baseline in Percent Predicted Residual Volume (RV), Mean (Standard Deviation) (Cohort 1: 200 mg QD, Cycle 67, Day 1, n=1): 2.0 (—) percent predicted RV
- Change From Baseline in Percent Predicted Residual Volume (RV), Mean (Standard Deviation) (Cohort 1: 200 mg QD, EOT, n=11): 6.3 (24.3) percent predicted RV
- Change From Baseline in Percent Predicted Residual Volume (RV), Mean (Standard Deviation) (Cohort 2: 200 mg BID, Cycle 3, Day 1, n=12): −4.6 (18.8) percent predicted RV
- Change From Baseline in Percent Predicted Residual Volume (RV), Mean (Standard Deviation) (Cohort 2: 200 mg BID, Cycle 5, Day 1, n=11): −11.5 (26.9) percent predicted RV
- Change From Baseline in Percent Predicted Residual Volume (RV), Mean (Standard Deviation) (Cohort 2: 200 mg BID, Cycle 7, Day 1, n=8): −9.9 (17.1) percent predicted RV
- Change From Baseline in Percent Predicted Residual Volume (RV), Mean (Standard Deviation) (Cohort 2: 200 mg BID, Cycle 8, Day 1, n=1): −28.0 (—) percent predicted RV
- Change From Baseline in Percent Predicted Residual Volume (RV), Mean (Standard Deviation) (Cohort 2: 200 mg BID, Cycle 9, Day 1, n=8): −19.9 (24.3) percent predicted RV
- Change From Baseline in Percent Predicted Residual Volume (RV), Mean (Standard Deviation) (Cohort 2: 200 mg BID, Cycle 10, Day 1, n=2): −47.5 (0.7) percent predicted RV
- Change From Baseline in Percent Predicted Residual Volume (RV), Mean (Standard Deviation) (Cohort 2: 200 mg BID, Cycle 11, Day 1, n=6): −10.5 (28.3) percent predicted RV
- Change From Baseline in Percent Predicted Residual Volume (RV), Mean (Standard Deviation) (Cohort 2: 200 mg BID, Cycle 12, Day 1, n=1): −5.0 (—) percent predicted RV
